Source: patent publication US20250230193A1, “CYCLIC COMPOUND HAVING SELECTIVE KRAS INHIBITORY EFFECT ON HRAS AND NRAS” (CHUGAI SEIYAKU KABUSHIKI KAISHA, priority 2022, published 2025)
Where a SMILES comes first, the peptide text is derived from it. Bridges are numbered along the chain shown (N, C = ends). [ ]: non-standard residue; d: D form. The star is where a group is joined. hPhe(3-Cl-4-CF3) = N[C@@H](CCc1ccc(C(F)(F)F)c(Cl)c1)C(=O)O; NPrPhe(4-CF3) = CCCN[C@@H](Cc1ccc(C(F)(F)F)cc1)C(=O)O; Piperazinyl(4-(3-oxetanyl)) = C1OCC1N1CCN(*)CC1; 3Oxa8azabicyclo(3.2.1)octane = C1CC2COCC1N2*; NMeGly(cPent) = CN[C@H](C(=O)O)C1CCCC1; Piperidide(4-Me) = CC1CCN(*)CC1; NMeD = CN[C@@H](CC(=O)O)C(=O)O; NMeL = CN[C@@H](CC(C)C)C(=O)O; Oxazolidin(3-yl) = C1CN(*)CO1; Azetidin(1-yl) = C1CN(*)C1; Morpholide = C1CN(*)CCO1; Piperidide = C1CCN(*)CC1; Pyrrolidide = C1CCN(*)C1; Ac5c = NC1(C(=O)O)CCCC1; Aze = O=C(O)[C@@H]1CCN1; X25 = CC1(C)CCN(*)C1; Sar = CNCC(=O)O

Key:
[1] = molecular target: GDP-bound HRAS wild-type protein (Homo sapiens, UniProt P01112); assay: Binding to HRAS by surface plasmon resonance (SPR), Single Cycle Kinetics; settings: KD ratio HRAS/KRAS, SPR
GDP-bound HRAS wild-type protein, sequence (P01112 whole entry): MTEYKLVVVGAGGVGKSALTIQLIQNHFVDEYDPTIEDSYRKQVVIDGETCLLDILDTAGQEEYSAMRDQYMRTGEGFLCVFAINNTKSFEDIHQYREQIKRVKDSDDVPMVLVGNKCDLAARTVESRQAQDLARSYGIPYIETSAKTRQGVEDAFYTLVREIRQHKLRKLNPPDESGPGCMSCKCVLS

[2] = molecular target: GDP-bound NRAS wild-type protein (Homo sapiens, UniProt P01111); assay: Binding to NRAS by surface plasmon resonance (SPR), Single Cycle Kinetics; settings: KD ratio NRAS/KRAS, SPR
GDP-bound NRAS wild-type protein, sequence (P01111 whole entry): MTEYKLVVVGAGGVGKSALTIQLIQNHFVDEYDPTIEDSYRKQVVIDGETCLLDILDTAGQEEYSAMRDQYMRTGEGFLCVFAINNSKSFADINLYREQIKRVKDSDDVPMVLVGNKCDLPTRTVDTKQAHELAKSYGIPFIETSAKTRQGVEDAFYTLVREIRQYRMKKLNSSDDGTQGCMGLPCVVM

| Compound | HRAS/KRAS (ratio of KD for GDP-bound HRAS wild-type to KD for KRAS) [1] | NRAS/KRAS (ratio of KD for GDP-bound NRAS wild-type to KD for KRAS) [2] |
| --- | --- | --- |
| CCCN1C(=O)[C@@H]2CCN2C(=O)CN(C)C(=O)[C@H]([C@@H](C)CC)NC(=O)[C@H](CC(C)C)N(C)C(=O)C[C@@H](C(=O)N2CCOCC2)N(C)C(=O)[C@H](C2CCCC2)N(C)C(=O)C2(CCCC2)NC(=O)[C@@H]2CCCN2C(=O)[C@H](CCc2ccc(C(F)(F)F)c(Cl)c2)NC(=O)CN(C)C(=O)[C@@H]1Cc1ccc(C(F)(F)F)cc1 [PP0156] ([NMeL]I[Sar][Aze][NPrPhe(4-CF3)][Sar][hPhe(3-Cl-4-CF3)]P[Ac5c][NMeGly(cPent)][NMeD]-Morpholide; lactam N-11) | B (a compound having 3 or more and less than 10 is denoted as B) | C (A compound having a KD ratio of 0.1 or more and less than 3 is denoted as C) |
| CCCN1C(=O)CN(C)C(=O)[C@@H]2CCN2C(=O)[C@H]([C@@H](C)CC)NC(=O)[C@H](CC(C)C)N(C)C(=O)C[C@@H](C(=O)N2CCOCC2)N(C)C(=O)[C@H](C2CCCC2)N(C)C(=O)C2(CCCC2)NC(=O)[C@@H]2CCCN2C(=O)[C@H](CCc2ccc(C(F)(F)F)c(Cl)c2)NC(=O)CN(C)C(=O)[C@@H]1Cc1ccc(C(F)(F)F)cc1 [PP0158] ([NMeL]I[Aze][Sar][NPrPhe(4-CF3)][Sar][hPhe(3-Cl-4-CF3)]P[Ac5c][NMeGly(cPent)][NMeD]-Morpholide; lactam N-11) | B (a compound having 3 or more and less than 10 is denoted as B) | A (a compound having 10 or more and less than 20 is denoted as A) |
| CCCN1C(=O)CN(C)C(=O)[C@@H]2CCCN2C(=O)[C@H]([C@@H](C)CC)NC(=O)[C@H](CC(C)C)N(C)C(=O)C[C@@H](C(=O)N2CCOCC2)N(C)C(=O)[C@H](C2CCCC2)N(C)C(=O)C2(CCCC2)NC(=O)[C@@H]2CCCN2C(=O)[C@H](CCc2ccc(C(F)(F)F)c(Cl)c2)NC(=O)CN(C)C(=O)[C@@H]1Cc1ccc(C(F)(F)F)cc1 [PP0165] ([NMeL]IP[Sar][NPrPhe(4-CF3)][Sar][hPhe(3-Cl-4-CF3)]P[Ac5c][NMeGly(cPent)][NMeD]-Morpholide; lactam N-11) | B (a compound having 3 or more and less than 10 is denoted as B) | B (a compound having 3 or more and less than 10 is denoted as B) |
| CCCN1C(=O)[C@@H]2CCN2C(=O)[C@@H]2CCN2C(=O)[C@H]([C@@H](C)CC)NC(=O)[C@H](CC(C)C)N(C)C(=O)C[C@@H](C(=O)N2CCOCC2)N(C)C(=O)[C@H](C2CCCC2)N(C)C(=O)C2(CCCC2)NC(=O)[C@@H]2CCCN2C(=O)[C@H](CCc2ccc(C(F)(F)F)c(Cl)c2)NC(=O)CN(C)C(=O)[C@@H]1Cc1ccc(C(F)(F)F)cc1 [PP0168] ([NMeL]I[Aze][Aze][NPrPhe(4-CF3)][Sar][hPhe(3-Cl-4-CF3)]P[Ac5c][NMeGly(cPent)][NMeD]-Morpholide; lactam N-11) | B (a compound having 3 or more and less than 10 is denoted as B) | C (A compound having a KD ratio of 0.1 or more and less than 3 is denoted as C) |
| CCCN1C(=O)CN(C)C(=O)CN(C)C(=O)[C@H]([C@@H](C)CC)NC(=O)[C@H](CC(C)C)N(C)C(=O)C[C@@H](C(=O)N(C)C)N(C)C(=O)[C@H](C2CCCC2)N(C)C(=O)C2(CCCC2)NC(=O)[C@@H]2CCCN2C(=O)[C@H](CCc2ccc(C(F)(F)F)c(Cl)c2)NC(=O)CN(C)C(=O)[C@@H]1Cc1ccc(C(F)(F)F)cc1 [PP0169] ([NMeL]I[Sar][Sar][NPrPhe(4-CF3)][Sar][hPhe(3-Cl-4-CF3)]P[Ac5c][NMeGly(cPent)][NMeD]-NMe2; lactam N-11) | B (a compound having 3 or more and less than 10 is denoted as B) | B (a compound having 3 or more and less than 10 is denoted as B) |
| CCCN1C(=O)CN(C)C(=O)CN(C)C(=O)[C@H]([C@@H](C)CC)NC(=O)[C@H](CC(C)C)N(C)C(=O)C[C@@H](C(=O)N2CCCC2)N(C)C(=O)[C@H](C2CCCC2)N(C)C(=O)C2(CCCC2)NC(=O)[C@@H]2CCCN2C(=O)[C@H](CCc2ccc(C(F)(F)F)c(Cl)c2)NC(=O)CN(C)C(=O)[C@@H]1Cc1ccc(C(F)(F)F)cc1 [PP0170] ([NMeL]I[Sar][Sar][NPrPhe(4-CF3)][Sar][hPhe(3-Cl-4-CF3)]P[Ac5c][NMeGly(cPent)][NMeD]-Pyrrolidide; lactam N-11) | B (a compound having 3 or more and less than 10 is denoted as B) | B (a compound having 3 or more and less than 10 is denoted as B) |
| CCCN1C(=O)CN(C)C(=O)CN(C)C(=O)[C@H]([C@@H](C)CC)NC(=O)[C@H](CC(C)C)N(C)C(=O)C[C@@H](C(=O)N2CCCCC2)N(C)C(=O)[C@H](C2CCCC2)N(C)C(=O)C2(CCCC2)NC(=O)[C@@H]2CCCN2C(=O)[C@H](CCc2ccc(C(F)(F)F)c(Cl)c2)NC(=O)CN(C)C(=O)[C@@H]1Cc1ccc(C(F)(F)F)cc1 [PP0171] ([NMeL]I[Sar][Sar][NPrPhe(4-CF3)][Sar][hPhe(3-Cl-4-CF3)]P[Ac5c][NMeGly(cPent)][NMeD]-Piperidide; lactam N-11) | C (A compound having a KD ratio of 0.1 or more and less than 3 is denoted as C) | B (a compound having 3 or more and less than 10 is denoted as B) |
| CCCN1C(=O)CN(C)C(=O)CN(C)C(=O)[C@H]([C@@H](C)CC)NC(=O)[C@H](CC(C)C)N(C)C(=O)C[C@@H](C(=O)N2CCC2)N(C)C(=O)[C@H](C2CCCC2)N(C)C(=O)C2(CCCC2)NC(=O)[C@@H]2CCCN2C(=O)[C@H](CCc2ccc(C(F)(F)F)c(Cl)c2)NC(=O)CN(C)C(=O)[C@@H]1Cc1ccc(C(F)(F)F)cc1 [PP0172] ([NMeL]I[Sar][Sar][NPrPhe(4-CF3)][Sar][hPhe(3-Cl-4-CF3)]P[Ac5c][NMeGly(cPent)][NMeD]-{Azetidin(1-yl)}; lactam N-11) | C (A compound having a KD ratio of 0.1 or more and less than 3 is denoted as C) | B (a compound having 3 or more and less than 10 is denoted as B) |
| CCCN1C(=O)CN(C)C(=O)CN(C)C(=O)[C@H]([C@@H](C)CC)NC(=O)[C@H](CC(C)C)N(C)C(=O)C[C@@H](C(=O)N2C3CCC2COC3)N(C)C(=O)[C@H](C2CCCC2)N(C)C(=O)C2(CCCC2)NC(=O)[C@@H]2CCCN2C(=O)[C@H](CCc2ccc(C(F)(F)F)c(Cl)c2)NC(=O)CN(C)C(=O)[C@@H]1Cc1ccc(C(F)(F)F)cc1 [PP0173] ([NMeL]I[Sar][Sar][NPrPhe(4-CF3)][Sar][hPhe(3-Cl-4-CF3)]P[Ac5c][NMeGly(cPent)][NMeD]-{3Oxa8azabicyclo(3.2.1)octane}; lactam N-11) | C (A compound having a KD ratio of 0.1 or more and less than 3 is denoted as C) | B (a compound having 3 or more and less than 10 is denoted as B) |
| CCCN1C(=O)CN(C)C(=O)CN(C)C(=O)[C@H]([C@@H](C)CC)NC(=O)[C@H](CC(C)C)N(C)C(=O)C[C@@H](C(=O)N2CCOC2)N(C)C(=O)[C@H](C2CCCC2)N(C)C(=O)C2(CCCC2)NC(=O)[C@@H]2CCCN2C(=O)[C@H](CCc2ccc(C(F)(F)F)c(Cl)c2)NC(=O)CN(C)C(=O)[C@@H]1Cc1ccc(C(F)(F)F)cc1 [PP0174] ([NMeL]I[Sar][Sar][NPrPhe(4-CF3)][Sar][hPhe(3-Cl-4-CF3)]P[Ac5c][NMeGly(cPent)][NMeD]-{Oxazolidin(3-yl)}; lactam N-11) | B (a compound having 3 or more and less than 10 is denoted as B) | B (a compound having 3 or more and less than 10 is denoted as B) |
| CCCN1C(=O)CN(C)C(=O)CN(C)C(=O)[C@H]([C@@H](C)CC)NC(=O)[C@H](CC(C)C)N(C)C(=O)C[C@@H](C(=O)N2CCN(C3COC3)CC2)N(C)C(=O)[C@H](C2CCCC2)N(C)C(=O)C2(CCCC2)NC(=O)[C@@H]2CCCN2C(=O)[C@H](CCc2ccc(C(F)(F)F)c(Cl)c2)NC(=O)CN(C)C(=O)[C@@H]1Cc1ccc(C(F)(F)F)cc1 [PP0175] ([NMeL]I[Sar][Sar][NPrPhe(4-CF3)][Sar][hPhe(3-Cl-4-CF3)]P[Ac5c][NMeGly(cPent)][NMeD]-{Piperazinyl(4-(3-oxetanyl))}; lactam N-11) | B (a compound having 3 or more and less than 10 is denoted as B) | B (a compound having 3 or more and less than 10 is denoted as B) |
| CCCN1C(=O)CN(C)C(=O)CN(C)C(=O)[C@H]([C@@H](C)CC)NC(=O)[C@H](CC(C)C)N(C)C(=O)C[C@@H](C(=O)N2CCC(C)CC2)N(C)C(=O)[C@H](C2CCCC2)N(C)C(=O)C2(CCCC2)NC(=O)[C@@H]2CCCN2C(=O)[C@H](CCc2ccc(C(F)(F)F)c(Cl)c2)NC(=O)CN(C)C(=O)[C@@H]1Cc1ccc(C(F)(F)F)cc1 [PP0176] ([NMeL]I[Sar][Sar][NPrPhe(4-CF3)][Sar][hPhe(3-Cl-4-CF3)]P[Ac5c][NMeGly(cPent)][NMeD]-{Piperidide(4-Me)}; lactam N-11) | C (A compound having a KD ratio of 0.1 or more and less than 3 is denoted as C) | B (a compound having 3 or more and less than 10 is denoted as B) |
| CCCN1C(=O)CN(C)C(=O)CN(C)C(=O)[C@H]([C@@H](C)CC)NC(=O)[C@H](CC(C)C)N(C)C(=O)C[C@@H](C(=O)N2CCC(C)(C)C2)N(C)C(=O)[C@H](C2CCCC2)N(C)C(=O)C2(CCCC2)NC(=O)[C@@H]2CCCN2C(=O)[C@H](CCc2ccc(C(F)(F)F)c(Cl)c2)NC(=O)CN(C)C(=O)[C@@H]1Cc1ccc(C(F)(F)F)cc1 [PP0177] ([NMeL]I[Sar][Sar][NPrPhe(4-CF3)][Sar][hPhe(3-Cl-4-CF3)]P[Ac5c][NMeGly(cPent)][NMeD]-X25; lactam N-11) | C (A compound having a KD ratio of 0.1 or more and less than 3 is denoted as C) | B (a compound having 3 or more and less than 10 is denoted as B) |
